{"source": "patent US11912699B2", "about": "“Tau-protein targeting compounds and associated” (Arvinas Operations, Inc., priority 2019, dated 2024)", "key": {"Tau P301L": {"target": "T1, Tau P301L (Homo sapiens, UniProt P10636, P618L)", "T1 construct": "expressed in transfected cells", "T1 sequence (P10636 1-441 isoform P10636-8 P301L)": "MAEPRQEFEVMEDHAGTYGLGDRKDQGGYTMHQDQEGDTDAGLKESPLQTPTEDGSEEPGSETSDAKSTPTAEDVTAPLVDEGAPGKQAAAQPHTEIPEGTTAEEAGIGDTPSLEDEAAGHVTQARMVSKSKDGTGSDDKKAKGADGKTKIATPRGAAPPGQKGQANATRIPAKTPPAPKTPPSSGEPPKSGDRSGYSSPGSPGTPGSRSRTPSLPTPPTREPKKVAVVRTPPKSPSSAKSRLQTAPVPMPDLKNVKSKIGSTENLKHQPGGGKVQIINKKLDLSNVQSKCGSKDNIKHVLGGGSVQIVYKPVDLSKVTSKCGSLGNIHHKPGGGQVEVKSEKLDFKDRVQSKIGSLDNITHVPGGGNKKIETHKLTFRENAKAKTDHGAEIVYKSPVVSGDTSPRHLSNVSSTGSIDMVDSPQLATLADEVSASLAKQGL", "test": "In vitro tau degradation assay in CHOK1 Tau P301L cells (sarkosyl insoluble tau, WES)", "type": "cell-based", "details": "CHO-K1; remaining tau protein in sarkosyl insoluble pellet; CHOK1 Tau P301L cells treated 48 hours with test compound at 1 μM, doxycycline removed for the last 24 hours; relative to DMSO doxycycline control; read-out: Tau Protein Degradation effect at 1 μM", "outline": "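T-Rex CHOK1 clone D1 with doxycycline-inducible (1 μg/ml) Tau P301L treated 48 h with compound at 1 μM, doxycycline removed for the final 24 h. Sarkosyl-insoluble tau quantified by WES capillary electrophoresis with Tau1 antibody, expressed relative to DMSO doxycycline control and binned as ≤50% or >50% remaining.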"}, "[1]": {"tested_on": "seeding competent tau species (MC1-positive seeded conformational tau) in ChoK1-Tau P301L cells", "test": "Tg2508 ex-vivo seeding of P301L CHO cells, MC1 high content image analysis", "type": "cell-based, Tg2508 mice", "details": "single parenteral treatment 30 mpk, 24 hours", "method": "FIGS. 4A, 4B, and 4C. […] Briefly, ChoK1-Tau P301L cells were treated with K18 tau preformed fibrils (PFFs) or extracts from Tg2508 brain samples. Seeded conformational tau species were detected by MC1 antibody positivity and quantified as MC1 spot average intensity per cell on the Image Express high content platform."}, "[2]": {"target": "T2, seeded conformational tau (MC1) (Homo sapiens, UniProt P10636, P618L)", "T2 construct": "tissue Taconic; host or cells: cortex / hippocampus of Tg2508 transgenic mice, sarkosyl-insoluble fraction or brain extract", "T2 sequence (P10636 1-383 isoform P10636-6 P243L)": "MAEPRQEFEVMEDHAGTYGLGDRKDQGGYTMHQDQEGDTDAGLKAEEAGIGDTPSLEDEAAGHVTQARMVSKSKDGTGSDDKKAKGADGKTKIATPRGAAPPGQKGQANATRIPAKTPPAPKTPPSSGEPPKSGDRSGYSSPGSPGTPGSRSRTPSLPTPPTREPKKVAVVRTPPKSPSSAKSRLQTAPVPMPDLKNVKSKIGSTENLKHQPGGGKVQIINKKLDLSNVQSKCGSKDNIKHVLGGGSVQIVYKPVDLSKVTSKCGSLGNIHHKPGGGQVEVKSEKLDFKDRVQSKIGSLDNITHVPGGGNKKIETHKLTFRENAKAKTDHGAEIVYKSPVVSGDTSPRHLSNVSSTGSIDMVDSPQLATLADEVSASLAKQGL", "test": "Tg2508 ex-vivo tau seeding assay in ChoK1-Tau P301L cells (MC1 high content imaging)", "type": "cell-based, mice", "details": "single parenteral treatment 30 mpk, 24 hours; MC1 spot intensity in ChoK1-Tau P301L cells", "method": "FIGS. 4A, 4B, and 4C. Briefly, ChoK1-Tau P301L cells were treated with K18 tau preformed fibrils (PFFs) or extracts from Tg2508 brain samples (as described in Materials and Methods; PFF generation modified from Holmes et al. PNAS. 2014. Proteopathic tau seeding predicts tauopathy in vivo. Oct. 111 (41) E4376-85). Seeded conformational tau species are detected by MC1 antibody positivity and quantified as MC1 spot average intensity per cell on the Image Express™ high content platform.\nIn vitro tau Seeding Assay for FIGS. 4A, 4B, and 4C. Tau P301L T-Rex CHO Cells were plated on BioCoat Collagen 96 well microplates that were also poly-D-lysine coated. Media was removed, cells were washed with DPBS, trypsinized and plated at 50,000 cells per mL with Doxycycline […] and no doxycycline control for 24 hours. […]"}, "pathologic tau [3]": {"target": "T3, pathologic tau (Homo sapiens, UniProt P10636, P618L)", "T3 construct": "tissue Taconic; host or cells: cortex / hippocampus of Tg2508 transgenic mice, sarkosyl-insoluble fraction or brain extract", "T3 sequence (P10636 1-383 isoform P10636-6 P243L)": "as above", "test": "In vivo tau degradation assay in Tg2508 tauopathy mice (sarkosyl insoluble tau, Wes)", "details": "Tg2508 mice, 15, 3, 1 or 0.3 mpk parenterally, 24 hours post dose", "method": "(§1) FIGS. 3A and 3B. Tg2508 tauopathy mice were dosed (12 animals per group) with either 15 mpk exemplary compound 82 or 30 mpk exemplary compound 382 or vehicle parenterally, as described below (Lewis et al., 2000). Twenty-four hours post dose, the animals were sacrificed and cortical brain samples were analyzed for pathologic tau by Wes capillary gel electrophoresis. FIG. 3A is a graphical representation of the averaged analysis of pathologic tau shown for each animal tested comparing lanes from the vehicle control to either exemplary compound 82 or exemplary compound 382 as indicated in FIG. 3B. Greater than 95% reduction of pathologic tau was observed following treatment of the Tg2508 animals with either exemplary compound 82 or exemplary compound 382.\nFIG. 5. Tg2508 animals were dosed with either 15, 3, 1 or 0.3 mpk of bifunctional compound exemplary compound 382 parenterally, as described in materials and methods. Hippocampal extracts were analyzed for either pathologic tau levels by Wes or bifunctional compound levels at each given dose as shown.\nIn vivo tau Degradation Assay for FIGS. 3A, 3B and 5. […] Hetero-bifunctional degrader molecule concentrations were determined using standand liquid chromatography and mass spectroscopy methodologies (Drumetix)."}, "pathologic tau [4]": {"target": "T3, pathologic tau", "test": "Pathologic tau in Tg2508 brain after intravenous dosing, measured by Wes capillary gel electrophoresis", "type": "in vivo, Tg2508 tauopathy mice", "details": "15, 3, 1 or 0.3 mpk intravenous, 24 hours post dose, Tg2508 hippocampi", "method": "as §1, with “and 3B. Exemplary bifunctional compounds degrade greater than 95% of pathologic tau in Tg2508 brain following parenteral administration in vivo. Tg2508 tauopathy” for “and 3B. Tg2508 tauopathy”, “or vehicle intravenously. Twenty-four hours” for “or vehicle parenterally, as described below (Lewis et al., 2000). Twenty-four hours”, “animals were sacrificed, and cortical” for “animals were sacrificed and cortical”\nFIG. 5. […] Tg2508 animals were dosed with either 15, 3, 1 or 0.3 mpk of bifunctional compound 382 intravenously, as described in materials and methods. Hippocampal extracts were analyzed for either pathologic tau levels by Wes or bifunctional compound levels at each given dose as shown."}}}
{"smiles": "Cn1c2ccncc2c2ccc(-c3ccc(N4CC(OC5CCN(CCCCCOc6ccc7c(c6)C(=O)N(C6CCC(=O)NC6=O)C7=O)CC5)C4)nc3)cc21", "note": "(centres unmarked) [Compound 382, 2-(2,6-dioxopiperidin-3-yl)-5-((5-(4-((1-(5-(5-methyl-5H-pyrido[4,3-b]indol-7-yl)pyridin-2-yl)azetidin-3-yl)oxy)piperidin-1-yl)pentyl)oxy) isoindoline-1,3-dione]", "values": [{"measurement": "remaining activity at 1 µM", "setting": "Tau P301L", "value": "< 50", "unit": "%"}, {"measurement": "seeding competent tau species in Tg2508 cortical brain extracts (MC1 spot average intensity per cell)", "setting": "[1]", "value": "effectively degraded"}, {"measurement": "seeding competent tau species in Tg2508 cortical brain extracts", "setting": "[2]", "value": "effectively degraded"}, {"measurement": "concentration of tau protein in hippocampi", "setting": "pathologic tau [3]", "value": "dose-dependently reduced"}, {"measurement": "pathologic tau levels in hippocampal extracts", "setting": "pathologic tau [4]", "value": "A clear dose-response relationship is demonstrated"}]}
